Results on 24 compounds are retold here after patent publication US20110212968A1, “PHENETHYLAMIDE DERIVATIVES AND THEIR HETEROCYCLIC ANALOGUES” (priority 2008, published 2011).

The target in test [1] is T1, human orexin-1 receptor (Homo sapiens, UniProt O43613).
T1 construct: expressed in transfected cells; host or cells: CHO (Chinese hamster ovary) cells, kept under G418 selection
T1 sequence (O43613 1-425): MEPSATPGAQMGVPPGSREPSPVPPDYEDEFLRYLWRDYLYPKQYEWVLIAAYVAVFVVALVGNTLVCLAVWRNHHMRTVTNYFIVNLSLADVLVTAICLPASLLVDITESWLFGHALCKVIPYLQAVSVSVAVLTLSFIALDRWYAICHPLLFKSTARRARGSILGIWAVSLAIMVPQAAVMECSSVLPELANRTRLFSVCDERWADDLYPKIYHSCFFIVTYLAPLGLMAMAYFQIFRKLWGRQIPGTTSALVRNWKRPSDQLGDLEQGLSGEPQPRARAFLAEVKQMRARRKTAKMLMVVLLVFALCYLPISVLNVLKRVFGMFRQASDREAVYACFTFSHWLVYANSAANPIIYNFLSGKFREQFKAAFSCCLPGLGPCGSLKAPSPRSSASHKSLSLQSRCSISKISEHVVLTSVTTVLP
As to the kind of experiment: Intracellular calcium measurement (FLIPR Tetra), orexin receptor antagonistic activity, OX1. The class given is cell-based. Conditions: CHO cells expressing human orexin-1 receptor, 3 nM orexin-A, conditions B. Summed up: (§1)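 Recombinant CHO cells expressing human OX1 or OX2, loaded with fluo-4 AM plus probenecid, were preincubated with antagonist 10 min, then stimulated with 3 nM human orexin-A. Peak fluorescence was compared with vehicle; IC50 derived, sometimes normalized to an on-plate reference compound; two pipetting/cell-splitting conditions were used.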

Test [2] deals with T2, human orexin-2 receptor (Homo sapiens, UniProt O43614).
T2 construct: expressed in transfected cells; host or cells: CHO (Chinese hamster ovary) cells, kept under G418 selection
T2 sequence (O43614 1-444): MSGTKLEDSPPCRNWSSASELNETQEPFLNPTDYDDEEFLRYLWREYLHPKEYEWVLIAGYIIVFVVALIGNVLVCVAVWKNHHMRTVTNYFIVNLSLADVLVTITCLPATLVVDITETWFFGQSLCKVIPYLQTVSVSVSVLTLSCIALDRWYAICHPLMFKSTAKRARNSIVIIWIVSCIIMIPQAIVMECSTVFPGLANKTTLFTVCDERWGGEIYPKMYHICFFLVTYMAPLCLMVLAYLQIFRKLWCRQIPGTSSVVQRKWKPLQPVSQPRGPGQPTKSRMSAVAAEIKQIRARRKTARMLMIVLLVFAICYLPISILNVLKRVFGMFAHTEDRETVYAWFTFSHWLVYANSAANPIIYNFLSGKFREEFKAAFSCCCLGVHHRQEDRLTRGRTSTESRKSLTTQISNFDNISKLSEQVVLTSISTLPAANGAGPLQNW
The test can be described thus: Intracellular calcium measurement (FLIPR Tetra), orexin receptor antagonistic activity, OX2. The format is cell-based. The following applies: CHO cells expressing human orexin-2 receptor, 3 nM orexin-A, conditions B. Summed up:
as §1

Where [3] appears, read: normalized (*) using IC50 of on-plate reference compound.

On to `Cc1cccc(-c2sc(N)nc2C(=O)N(CCc2ccc3ccccc3c2)CC2CC2)c1` [Example 167, 2-Amino-5-m-tolyl-thiazole-4-carboxylic acid cyclopropylmethyl-(2-naphthalen-2-yl-ethyl)-amide], for which the IC50 in test [1] is 171 nM; in test [2] it was 45 nM.

Take `CCC(Cc1ccc(OC)c(OC)c1)N(CC1CC1)C(=O)c1nc(N)sc1-c1cccc(C)c1` (stereo not drawn) [Example 169, 2-Amino-5-m-tolyl-thiazole-4-carboxylic acid cyclopropylmethyl-[1-(3,4-dimethoxy-benzyl)-propyl]-amide]: the IC50 in test [1] is 25 nM; in test [2], 27 nM.

Take `COc1cc(CCN(CC2CC2)C(=O)c2nc(N)sc2-c2cccc(C)c2)cc(OC)c1OC(C)C` [Example 173, 2-Amino-5-m-tolyl-thiazole-4-carboxylic acid cyclopropylmethyl-[2-(4-isopropoxy-3,5-dimethoxy-phenyl)-ethyl]-amide]: the IC50 amounted to 147 nM in test [1] and 12 nM in test [2].

For the compound `Cc1cccc(-c2sc(N)nc2C(=O)N(CCc2csc(N)n2)CC2CC2)c1` [Example 177, 2-Amino-5-m-tolyl-thiazole-4-carboxylic acid [2-(2-amino-thiazol-4-yl)-ethyl]-cyclopropylmethyl-amide], the IC50 in test [1] was over 10000 nM; in test [2], 954 nM.

Turning to `CCc1nc(I)cn1CCN(CC1CC1)C(=O)c1nc(N)sc1-c1cccc(C)c1` [Example 178, 2-Amino-5-m-tolyl-thiazole-4-carboxylic acid cyclopropylmethyl-[2-(2-ethyl-4-iodo-imidazol-1-yl)-ethyl]-amide], the IC50 in test [1] came out at 739 nM; in test [2] it was 943 nM.

Regarding `Cc1nc(C(=O)N(CCc2ccccc2Cl)CC2CC2)c(-c2ccc(C)c(C)c2)s1` [Example 180, 5-(3,4-Dimethyl-phenyl)-2-methyl-thiazole-4-carboxylic acid [2-(2-chloro-phenyl)-ethyl]-cyclopropylmethyl-amide], the IC50 in test [1] was 4360 nM; in test [2], 240 nM.

Take `Cc1nc(C(=O)N(CCc2ccc(C(F)(F)F)cc2)CC2CC2)c(-c2ccc(C)c(C)c2)s1` [Example 192, 5-(3,4-Dimethyl-phenyl)-2-methyl-thiazole-4-carboxylic acid cyclopropylmethyl-[2-(4-trifluoromethyl-phenyl)-ethyl]-amide]: the values for the IC50 in test [1] and in test [2] were over 10000 nM and 719 nM, respectively.

With `Cc1nc(C(=O)N(CCc2ccc3c(c2)OCCO3)CC2CC2)c(-c2ccc(C)c(C)c2)s1` [Example 198, 5-(3,4-Dimethyl-phenyl)-2-methyl-thiazole-4-carboxylic acid cyclopropylmethyl-[2-(2,3-dihydro-benzo[1,4]dioxin-6-yl)-ethyl]-amide], the IC50 in test [1] came to 1070 nM; in test [2], 65 nM.

Take `CCOc1ccc(CCN(CC2CC2)C(=O)c2nc(C)sc2-c2ccc(C)c(C)c2)cc1OC` [Example 199, 5-(3,4-Dimethyl-phenyl)-2-methyl-thiazole-4-carboxylic acid cyclopropylmethyl-[2-(4-ethoxy-3-methoxy-phenyl)-ethyl]-amide]: the figures for the IC50 in test [1] and in test [2] were 404 nM and 9 nM, respectively.

Regarding `COc1ccc(CCN(CC2CC2)C(=O)c2nc(C)sc2-c2ccc(C)c(C)c2)cc1SC` [Example 201, 5-(3,4-Dimethyl-phenyl)-2-methyl-thiazole-4-carboxylic acid cyclopropylmethyl-[2-(4-methoxy-3-methylsulfanyl-phenyl)-ethyl]-amide], the IC50 in test [1] is 21 nM; in test [2], 15 nM.

On to `COc1ccc(CCN(CC2CC2)C(=O)c2nc(C)sc2-c2ccc(C)c(C)c2)cc1C` [Example 202, 5-(3,4-Dimethyl-phenyl)-2-methyl-thiazole-4-carboxylic acid cyclopropylmethyl-[2-(4-methoxy-3-methyl-phenyl)-ethyl]-amide], for which the half-inhibitory concentration (IC50) worked out at 447 nM in test [1] and 22 nM in test [2].

Take `COc1cc(CCN(CC2CC2)C(=O)c2nc(C)sc2-c2ccc(C)c(C)c2)ccc1O` [Example 207, 5-(3,4-Dimethyl-phenyl)-2-methyl-thiazole-4-carboxylic acid cyclopropylmethyl-[2-(4-hydroxy-3-methoxy-phenyl)-ethyl]-amide]: the IC50 in test [1] stood at 538 nM; in test [2] it was 12 nM.

On to `COc1cc(CCN(CC2CC2)C(=O)c2nc(C)sc2-c2ccc(C)c(C)c2)c(OC)cc1I` [Example 213, 5-(3,4-Dimethyl-phenyl)-2-methyl-thiazole-4-carboxylic acid cyclopropylmethyl-[2-(4-iodo-2,5-dimethoxy-phenyl)-ethyl]-amide], for which the values for the IC50 in test [1] and in test [2] were 157 nM and 153 nM, respectively.

Regarding `Cc1cccc(-c2sc(N)nc2C(=O)N(CCc2nc3ccc(Cl)cc3[nH]2)CC2CC2)c1` [Example 220, 2-Amino-5-m-tolyl-thiazole-4-carboxylic acid [2-(6-chloro-1H-benzoimidazol-2-yl)-ethyl]-cyclopropylmethyl-amide], the results for the IC50 in test [1] and in test [2] were 139 nM and 31 nM, respectively.

In the case of `Cc1cccc(-c2sc(N)nc2C(=O)N(CCn2ccc3ccccc32)CC2CC2)c1` [Example 221, 2-Amino-5-m-tolyl-thiazole-4-carboxylic acid cyclopropylmethyl-(2-indol-1-yl-ethyl)-amide], the results for the IC50 in test [1] and in test [2] were 243 nM and 201 nM, respectively.

On to `Cc1cccc(-c2sc(N)nc2C(=O)N(CCc2c[nH]c3ccc(Br)cc23)CC2CC2)c1` [Example 223, 2-Amino-5-m-tolyl-thiazole-4-carboxylic acid [2-(5-bromo-1H-indol-3-yl)-ethyl]-cyclopropylmethyl-amide], for which the IC50 in test [1] came out at 5 nM; in test [2], 135 nM.

For the compound `Cc1cccc(-c2sc(N)nc2C(=O)N(CCc2c[nH]c3cc(Cl)ccc23)CC2CC2)c1` [Example 224, 2-Amino-5-m-tolyl-thiazole-4-carboxylic acid [2-(6-chloro-1H-indol-3-yl)-ethyl]-cyclopropylmethyl-amide], the IC50 in test [1] stood at 8 nM; in test [2], 26 nM.

For `COc1ccc2c(CCN(CC3CC3)C(=O)c3nc(N)sc3-c3cccc(C)c3)c[nH]c2c1` [Example 227, 2-Amino-5-m-tolyl-thiazole-4-carboxylic acid cyclopropylmethyl-[2-(6-methoxy-1H-indol-3-yl)-ethyl]-amide], the IC50 in test [1] amounted to 7 nM; in test [2], 17 nM.

Turning to `Cc1cccc(-c2sc(N)nc2C(=O)N(CCc2c[nH]c3c(C)cccc23)CC2CC2)c1` [Example 230, 2-Amino-5-m-tolyl-thiazole-4-carboxylic acid cyclopropylmethyl-[2-(7-methyl-1H-indol-3-yl)-ethyl]-amide], the IC50 amounted to 9 nM in test [1] and 18 nM in test [2].

With `Cc1cccc(-c2sc(N)nc2C(=O)N(CCc2c[nH]c3cccc(F)c23)CC2CC2)c1` [Example 231, 2-Amino-5-m-tolyl-thiazole-4-carboxylic acid cyclopropylmethyl-[2-(4-fluoro-1H-indol-3-yl)-ethyl]-amide], the IC50 in test [1] is 9 nM; in test [2], 27 nM.

For the compound `Cc1cccc(-c2sc(N)nc2C(=O)N(CCc2c[nH]c3ccc(F)cc23)CC2CC2)c1` [Example 232, 2-Amino-5-m-tolyl-thiazole-4-carboxylic acid cyclopropylmethyl-[2-(5-fluoro-1H-indol-3-yl)-ethyl]-amide], the figures for the IC50 in test [1] and in test [2] were 7 nM and 16 nM, respectively.

Take `Cc1cccc(-c2sc(N)nc2C(=O)N(CCc2c[nH]c3cc(F)ccc23)CC2CC2)c1` [Example 233, 2-Amino-5-m-tolyl-thiazole-4-carboxylic acid cyclopropylmethyl-[2-(6-fluoro-1H-indol-3-yl)-ethyl]-amide]: the IC50 in test [1] (setting [3]) is 37 nM; in test [2] (setting [3]) it was 22 nM.

Turning to `Cc1cccc(-c2sc(N)nc2C(=O)N(CCc2c[nH]c3c(F)cccc23)CC2CC2)c1` [Example 234, 2-Amino-5-m-tolyl-thiazole-4-carboxylic acid cyclopropylmethyl-[2-(7-fluoro-1H-indol-3-yl)-ethyl]-amide], the IC50 in test [1] stood at 5 nM; in test [2], 16 nM.

Consider `COc1ccc(CCN(CC2CC2)C(=O)c2nc(C)sc2-c2ccc(C)c(C)c2)cn1` [Example 254, 5-(3,4-Dimethyl-phenyl)-2-methyl-thiazole-4-carboxylic acid cyclopropylmethyl-[2-(6-methoxy-pyridin-3-yl)-ethyl]-amide], for which the IC50 was determined as 1770 nM in test [1] and 232 nM in test [2].
